27 compounds from US20240182465A1 (GENFLEET THERAPEUTICS (SHANGHAI) INC., priority 2021, published 2024) can be followed below.

Usually IC50 stands for the concentration that inhibits the measured activity by half. Higher therefore signals a need for much substance.

Each structure is given as a SMILES string. Counter-ions that a name gives are not always drawn.

Assay [1] concerns the target HPK1 (Homo sapiens, UniProt Q92918). The assay is described as follows: SLP76 phosphorylation assay (intracellular HPK1 inhibitory activity, p-SLP76 Ser376 sandwich ELISA). To be noted: p-SLP76 IC50(nM), Jurkat, Clone E6-1 cells; 1 h compound pre-incubation, anti-CD3 beads stimulation 20 min; SLP76 phosphorylation at S376. On the technique in general: An ELISA detects its analyte on a solid surface through an enzyme-linked reagent.
Target sequence in this assay (Q92918 whole entry): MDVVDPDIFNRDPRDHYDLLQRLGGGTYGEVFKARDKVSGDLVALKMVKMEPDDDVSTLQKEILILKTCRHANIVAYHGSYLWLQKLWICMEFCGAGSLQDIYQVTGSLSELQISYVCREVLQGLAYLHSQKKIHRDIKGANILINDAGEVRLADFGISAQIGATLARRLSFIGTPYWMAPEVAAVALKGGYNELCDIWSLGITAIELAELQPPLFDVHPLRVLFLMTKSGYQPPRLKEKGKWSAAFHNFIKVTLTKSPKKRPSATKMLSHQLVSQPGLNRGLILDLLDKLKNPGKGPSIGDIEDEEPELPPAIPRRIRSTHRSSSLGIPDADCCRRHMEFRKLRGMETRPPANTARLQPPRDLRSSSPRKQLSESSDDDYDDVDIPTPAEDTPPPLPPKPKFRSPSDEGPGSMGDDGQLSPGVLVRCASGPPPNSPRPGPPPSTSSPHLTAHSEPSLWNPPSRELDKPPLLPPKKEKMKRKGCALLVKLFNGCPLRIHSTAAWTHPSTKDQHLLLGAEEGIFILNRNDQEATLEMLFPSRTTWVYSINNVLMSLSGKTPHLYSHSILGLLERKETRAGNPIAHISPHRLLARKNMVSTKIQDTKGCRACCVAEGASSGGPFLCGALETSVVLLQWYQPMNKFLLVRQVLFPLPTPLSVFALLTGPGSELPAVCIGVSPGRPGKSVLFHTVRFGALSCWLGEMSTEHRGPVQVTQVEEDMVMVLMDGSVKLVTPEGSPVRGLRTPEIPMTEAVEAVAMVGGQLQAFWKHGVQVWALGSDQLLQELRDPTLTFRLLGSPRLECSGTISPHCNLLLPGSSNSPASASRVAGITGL

In assay [2] the target is T1, HPK1 (Homo sapiens, UniProt Q92918).
T1 sequence (Q92918 1-346 limits assumed): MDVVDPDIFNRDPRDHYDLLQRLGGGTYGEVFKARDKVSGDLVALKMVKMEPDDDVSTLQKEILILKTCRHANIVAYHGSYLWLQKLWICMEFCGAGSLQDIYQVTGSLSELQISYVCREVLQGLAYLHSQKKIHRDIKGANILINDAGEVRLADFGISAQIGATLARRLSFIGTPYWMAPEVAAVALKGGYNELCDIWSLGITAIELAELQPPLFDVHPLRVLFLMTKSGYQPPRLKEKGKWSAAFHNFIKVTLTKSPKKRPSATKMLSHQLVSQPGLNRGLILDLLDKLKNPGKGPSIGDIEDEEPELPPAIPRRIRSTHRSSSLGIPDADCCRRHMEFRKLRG
Kind of assay: HPK1 kinase activity assay (ADP-Glo). To be noted: HPK1 Kinase activity IC50 (nM), 1 nM HPK1, 10 μM ATP, 0.1 μg/μL MBP. (In general: In ADP-Glo the light output rises with the ADP produced.)

For the compound `CCN1Cc2c(cc(-c3cnc4[nH]cc(C)c4c3)cc2[C@@H]2CCCN2)C1=O` [Compound Z236, (S)-2-ethyl-6-(3-methyl-1H-pyrrolo[2,3-b]pyridin-5-yl)-4-(pyrrolidin-2-yl)isoindolin-1-one], the figures for the IC50 in assay [1] and in assay [2] were 3810 nM and 29.6 nM, respectively.

On to `Cc1c[nH]c2ncc(-c3cc4c(c(C(C)N(C)C)c3)COCC4)cc12` (stereo not drawn) [Compound Z108-1, N,N-dimethyl-1-(6-(3-methyl-1H-pyrrolo[2,3-b]pyridin-5-yl)isochroman-8-yl)ethan-1-amine], for which the IC50 in assay [1] was 571 nM; in assay [2], 4.12 nM.

Turning to `COC(=O)N1CCc2c(cc(-c3cnc4[nH]cc(C)c4c3)cc2[C@@H]2CCCN2)C1` [Compound Z305, methyl (S)-7-(3-methyl-1H-pyrrolo[2,3-b]pyridin-5-yl)-5-(pyrrolidin-2-yl)-3,4-dihydroisoquinoline-2(1H)-carboxylate], the values for the IC50 in assay [1] and in assay [2] were 297 nM and 0.84 nM, respectively.

Turning to `Cc1c[nH]c2ncc(-c3cc4c(c([C@@H]5CCCN5)c3)CN(C(=O)c3cnc(C5CC5)nc3)CC4)cc12` [Compound Z351, (S)-(2-cyclopropylpyrimidin-5-yl)(6-(3-methyl-1H-pyrrolo[2,3-b]pyridin-5-yl)-8-(pyrrolidin-2-yl)-3,4-dihydroisoquinolin-2(1H)-yl)methanone], the results for the IC50 in assay [1] and in assay [2] were 126 nM and 0.87 nM, respectively.

With `Cc1c[nH]c2ncc(-c3cc4c(c([C@@H]5CCCN5)c3)CCN(C(=O)[C@](C)(O)C(F)(F)F)C4)cc12` [Compound Z285-1, (S)-3,3,3-trifluoro-2-hydroxy-2-methyl-1-(7-(3-methyl-1H-pyrrolo[2,3-b]pyridin-5-yl)-5-((S)-pyrrolidin-2-yl)-3,4-dihydroisoquinolin-2(1H)-yl)propan-1-one], the results for the IC50 in assay [1] and in assay [2] were 239 nM and 0.87 nM, respectively.

Take `Cc1c[nH]c2ncc(-c3cc4c(c([C@@H]5CCCN5)c3)CCN(C(=O)C3(O)CC3)C4)cc12` [Compound Z310, (S)-(1-hydroxycyclopropyl)(7-(3-methyl-1H-pyrrolo[2,3-b]pyridin-5-yl)-5-(pyrrolidin-2-yl)-3,4-dihydroisoquinolin-2(1H)-yl)methanone]: the IC50 in assay [1] is 567 nM; in assay [2] it was 1.79 nM.

For the compound `CN1CCc2cc(-c3cnc(N)c(-c4cnn(C)c4)c3)cc(C3CCCN3)c2C1` (stereo not drawn) [Compound Z4, 3-(1-methyl-1H-pyrazol-4-yl)-5-(2-methyl-8-(pyrrolidin-2-yl)-1,2,3,4-tetrahydroisoquinolin-6-yl)pyridin-2-amine], the figures for the IC50 in assay [1] and in assay [2] were 3570 nM and 48.7 nM, respectively.

On to `Cc1c[nH]c2ncc(-c3cc4c(c(C5CCCN5)c3)COCC4)cc12` (stereo not drawn) [Compound Z97, 3-methyl-5-(8-(pyrrolidin-2-yl)isochroman-6-yl)-1H-pyrrolo[2,3-b]pyridine], for which the half-maximal inhibitory concentration (IC50) is 377 nM in assay [1] and 1.54 nM in assay [2].

For the compound `Cc1c[nH]c2ncc(-c3cc4c(c(CN5CCCC5)c3)COCC4)cc12` [Compound Z109, 3-methyl-5-(8-(pyrrolidin-1-ylmethyl)isochroman-6-yl)-1H-pyrrolo[2,3-b]pyridine], the IC50 in assay [1] was determined as 1060 nM; in assay [2] it was 9.78 nM.

For the compound `COCC(=O)N1CCc2cc(-c3cnc4[nH]cc(C(C)C)c4c3)cc([C@@H]3COCCN3)c2C1` [Compound Z424-1], the IC50 in assay [1] was found to be 129 nM; in assay [2] it was 0.31 nM.

Consider `CC(=O)N1Cc2cc(-c3cnc4[nH]cc(C)c4c3)cc([C@@H]3CCCN3)c2C1` [Compound Z235, (S)-1-(6-(3-methyl-1H-pyrrolo[2,3-b]pyridin-5-yl)-4-(pyrrolidin-2-yl)isoindolin-2-yl)ethan-1-one], for which the IC50 in assay [1] stood at 735 nM; in assay [2] it was 1.32 nM.

In the case of `Cc1c[nH]c2ncc(-c3cc4c(c([C@@H]5CCCN5)c3)CN(C(=O)C3CC3)CC4)cc12` [Compound Z122, (S)-1-(6-(3-methyl-1H-pyrrolo[2,3-b]pyridin-5-yl)-8-(pyrrolidin-2-yl)-3,4-dihydroisoquinolin-2(1H)-yl)cyclopropyl methyl ketone], the results for the IC50 in assay [1] and in assay [2] were 179 nM and 0.71 nM, respectively.

Regarding `CCN1Cc2cc(-c3cnc4[nH]cc(C)c4c3)cc([C@@H]3CCCN3)c2CC1=O` [Compound Z292, (S)-2-ethyl-7-(3-methyl-1H-pyrrolo[2,3-b]pyridin-5-yl)-5-(pyrrolidin-2-yl)-1,4-dihydroisoquinolin-3(2H)-one], the IC50 in assay [1] came to 272 nM; in assay [2], 0.97 nM.

Take `Cc1c[nH]c2ncc(-c3cc4c(c([C@@H]5CCCN5)c3)COCC4)nc12` [Compound Z106, (S)-7-methyl-2-(8-(pyrrolidin-2-yl)isochroman-6-yl)-5H-pyrrolo[2,3-b]pyrazine]: the IC50 in assay [1] was 133 nM; in assay [2] it was 0.53 nM.

As for `CC(=O)N1CCc2cc(-c3cnc4[nH]cc(C)c4c3)cc(C3COCCN3)c2C1` (stereo not drawn) [Compound Z119], the IC50 in assay [1] stood at 358 nM; in assay [2], 1.54 nM.

Turning to `CCN1Cc2c(cc(-c3cnc4[nH]cc(C)c4c3)cc2[C@@H]2CCCN2)CC1=O` [Compound Z138, (S)-2-ethyl-6-(3-methyl-1H-pyrrolo[2,3-b]pyridin-5-yl)-8-(pyrrolidin-2-yl)-1,4-dihydroisoquinolin-3(2H)-one], the IC50 was 132 nM in assay [1] and 0.81 nM in assay [2].

Consider `COCC(=O)N1CCc2cc(-c3cnc4[nH]cc(C)c4c3)cc([C@@H]3CCCN3)c2C1` [Compound Z121, (S)-1-(6-(3-methyl-1H-pyrrolo[2,3-b]pyridin-5-yl)-8-(pyrrolidin-2-yl)-3,4-dihydroisoquinolin-2(1H)-yl)methoxyethyl ketone], for which the IC50 in assay [1] stood at 185 nM; in assay [2] it was 0.5 nM.

As for `Cc1c[nH]c2ncc(-c3cc4c(c([C@@H]5CCCN5)c3)CN(C(=O)c3cnn(C)c3)C4)cc12` [Compound Z368, (S)-(1-methyl-1H-pyrazol-4-yl)(6-(3-methyl-1H-pyrrolo[2,3-b]pyridin-5-yl)-4-(pyrrolidin-2-yl)isoindolin-2-yl)methanone hydrochloride], the IC50 in assay [1] was 417 nM; in assay [2], 1.41 nM.

Consider `Cc1c[nH]c2ncc(-c3cc4c(c([C@@H]5CCCN5)c3)CN(C(=O)N3CC5CCC(C3)O5)CC4)cc12` [Compound Z389, (8-oxa-3-azabicyclo[3.2.1]octan-3-yl)(6-(3-methyl-1H-pyrrolo[2,3-b]pyridin-5-yl)-8-((S)-pyrrolidin-2-yl)-3,4-dihydroisoquinolin-2(1H)-yl)methanone], for which the IC50 in assay [1] came out at 47.1 nM; in assay [2], 0.21 nM.

For `CC(C#N)c1c[nH]c2ncc(-c3cc4c(c([C@@H]5CCCN5)c3)COCC4)cc12` (stereo partly drawn) [Compound Z104, 2-(5-(8-((S)-pyrrolidin-2-yl)isochroman-6-yl)-1H-pyrrolo[2,3-b]pyridin-3-yl)propanenitrile], the IC50 was 77 nM in assay [1] and 0.29 nM in assay [2].

In the case of `COCC(=O)N1Cc2cc(-c3cnc4[nH]cc(C)c4c3)cc([C@@H]3CCCN3)c2C1` [Compound Z261, (S)-2-methoxy-1-(6-(3-methyl-1H-pyrrolo[2,3-b]pyridin-5-yl)-4-(pyrrolidin-2-yl)isoindolin-2-yl)ethan-1-one hydrochloride], the figures for the IC50 in assay [1] and in assay [2] were 842 nM and 2.63 nM, respectively.

With `COc1cc(N2CCc3cc(-c4cnc5[nH]cc(C)c5c4)cc([C@@H]4CCCN4)c3C2)ccn1` [Compound Z344, (S)-2-(2-methoxypyridin-4-yl)-6-(3-methyl-1H-pyrrolo[2,3-b]pyridin-5-yl)-8-(pyrrolidin-2-yl)-1,2,3,4-tetrahydroisoquinoline], the figures for the IC50 in assay [1] and in assay [2] were 386 nM and 1.52 nM, respectively.

`Cc1c[nH]c2ncc(-c3cc4c(c([C@@H]5CCCN5)c3)CN(C(=O)Nc3cccnc3)C4)cc12` [Compound Z387, (S)-6-(3-methyl-1H-pyrrolo[2,3-b]pyridin-5-yl)-N-(pyridin-3-yl)-4-(pyrrolidin-2-yl)isoindoline-2-carboxamide]: the IC50 is 2400 nM in assay [1] and 3.8 nM in assay [2].

Regarding `CC(C)c1c[nH]c2ncc(-c3cc(C4CCCN4)c4cnccc4c3)cc12` (stereo not drawn) [Compound Z95, 6-(3-isopropyl-1H-pyrrolo[2,3-b]pyridin-5-yl)-8-(pyrrolidin-2-yl)isoquinoline], the IC50 in assay [1] was found to be 1080 nM; in assay [2], 3.11 nM.

Regarding `Cc1c[nH]c2ncc(-c3cc4c(c([C@@H]5CCCN5)c3)CN(c3ccncn3)CC4)cc12` [Compound Z315, (S)-6-(3-methyl-1H-pyrrolo[2,3-b]pyridin-5-yl)-2-(pyrimidin-4-yl)-8-(pyrrolidin-2-yl)-1,2,3,4-tetrahydroisoquinoline], the IC50 in assay [1] was 225 nM; in assay [2], 0.29 nM.

With `Cc1c[nH]c2ncc(-c3cc4c(c(C5COC(N)=N5)c3)COCC4)cc12` (stereo not drawn) [Compound Z243, 4-[6-(3-methyl-1H-pyrrolo[2,3-b]pyridin-5-yl)isochroman-8-yl]-4,5-dihydrooxazol-2-amine], the values for the IC50 in assay [1] and in assay [2] were 2510 nM and 16.5 nM, respectively.

For the compound `Cc1c[nH]c2ncc(-c3cc4c(c([C@@H]5CCCN5)c3)CN(C(=O)Nc3nccs3)C4)cc12` [Compound Z386, (S)-6-(3-methyl-1H-pyrrolo[2,3-b]pyridin-5-yl)-4-(pyrrolidin-2-yl)-N-(thiazol-2-yl)isoindoline-2-carboxamide], the IC50 amounted to 632 nM in assay [1] and 2.74 nM in assay [2].
